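Each compound was tested at five concentrations against cells in 96-well plates for 48 hours. The concentration for 50% growth inhibition is given as GI50.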 Activity calls are given as the source filed them. No stated cut-off is given here; in the data, active = GI50 up to about 1.1 µM and inactive = higher.
Columns and labels:
Assay in all cases: growth of human tumour cells (NCI), 48 h
A498 = system: A498
A549 = system: A549
CAKI-1 = system: CAKI-1
CCRF-CEM = system: CCRF-CEM
HOP-92 = system: HOP-92
Hs-578T = system: Hs-578T
LOX IMVI = system: LOX IMVI
M14 = system: M14
MDA-N = system: MDA-N
Malme-3M = system: Malme-3M
NCI-H226 = system: NCI-H226
NCI-H460 = system: NCI-H460
NCI-H522 = system: NCI-H522
NCI/ADR-RES = system: NCI/ADR-RES
OVCAR-8 = system: OVCAR-8
PC-3 = system: PC-3
SK-MEL-2 = system: SK-MEL-2
DLD-1 = system: DLD-1
KM-20L2 = system: KM-20L2

Row | SMILES | GI50 (A498) | GI50 (A549) | GI50 (CAKI-1) | GI50 (CCRF-CEM) | GI50 (HOP-92) | GI50 (Hs-578T) | GI50 (LOX IMVI) | GI50 (M14) | GI50 (MDA-N) | GI50 (Malme-3M) | GI50 (NCI-H226) | GI50 (NCI-H460) | GI50 (NCI-H522) | GI50 (NCI/ADR-RES) | GI50 (OVCAR-8) | GI50 (PC-3) | GI50 (SK-MEL-2) | GI50 (DLD-1) | GI50 (KM-20L2)
1 | Cn1c(=S)c2nc(SCCCc3ccccc3)[nH]c2n(C)c1=O | 18.4 µM (inactive) | 13.7 µM (inactive) | 20.9 µM (inactive) | 6.59 µM (inactive) | 78.3 µM (inactive) | > 100 µM (inactive) | 27.5 µM (inactive) | 17.6 µM (inactive) | 21.8 µM (inactive) | 62.1 µM (inactive) | 21.5 µM (inactive) | 7.14 µM (inactive) | 4.33 µM (inactive) | 22.3 µM (inactive) | 28.2 µM (inactive) | 36.8 µM (inactive) | 40.8 µM (inactive) |  | 
2 | OCc1cc2c([nH]c3ccccc32)c(C(O)CO)n1 (centres undefined) | > 100 µM (inactive) | > 100 µM (inactive) | > 100 µM (inactive) | > 100 µM (inactive) | > 100 µM (inactive) | > 100 µM (inactive) | > 100 µM (inactive) | > 100 µM (inactive) | > 100 µM (inactive) | > 100 µM (inactive) | > 100 µM (inactive) | > 100 µM (inactive) | > 100 µM (inactive) | > 100 µM (inactive) | > 100 µM (inactive) | > 100 µM (inactive) | > 100 µM (inactive) |  | 
3 | CC(=O)c1cccc(C)c1C(=O)O | > 100 µM (inactive) | > 100 µM (inactive) | > 100 µM (inactive) | > 100 µM (inactive) |  |  | > 100 µM (inactive) | > 100 µM (inactive) |  | > 100 µM (inactive) | > 100 µM (inactive) | > 100 µM (inactive) | > 100 µM (inactive) |  | > 100 µM (inactive) |  | > 100 µM (inactive) | > 100 µM (inactive) | > 100 µM (inactive)
4 | C=CCOc1ccc(C(=N/NC(=O)c2ccccc2)/N=N/c2ccc(C)cc2)cc1OC | 25.6 µM (inactive) | 26.2 µM (inactive) | 40.8 µM (inactive) | 9.14 µM (inactive) | 8.79 µM (inactive) | 23.4 µM (inactive) | 14.7 µM (inactive) | 22.7 µM (inactive) | 20.7 µM (inactive) | 21.1 µM (inactive) | 20.6 µM (inactive) | 18.4 µM (inactive) | 16.4 µM (inactive) | 35.7 µM (inactive) | 25.4 µM (inactive) | 25.7 µM (inactive) | 23.2 µM (inactive) |  | 
5 | CCC1=C(CC)C1(C#N)[N+](=O)[O-] | > 100 µM (inactive) | > 100 µM (inactive) | > 100 µM (inactive) | > 100 µM (inactive) |  |  | > 100 µM (inactive) | > 100 µM (inactive) |  | > 100 µM (inactive) | > 100 µM (inactive) | > 100 µM (inactive) | > 100 µM (inactive) |  | > 100 µM (inactive) |  | > 100 µM (inactive) | > 100 µM (inactive) | > 100 µM (inactive)
6 | COc1ccc(/C=N/N=C(\N)NO)c(OC)c1OC | 26.7 µM (inactive) | 13.3 µM (inactive) | 54.3 µM (inactive) | 20 µM (inactive) | 11.1 µM (inactive) | > 100 µM (inactive) | 23.4 µM (inactive) | 44.4 µM (inactive) | 66.5 µM (inactive) | 26.5 µM (inactive) | 23.4 µM (inactive) | 33 µM (inactive) | 36.6 µM (inactive) | 14 µM (inactive) | 15 µM (inactive) | 36.3 µM (inactive) | 25.6 µM (inactive) |  | 
7 | Cc1cc2nc(C=C(C(F)(F)F)C(F)(F)F)sc2cc1C | 4.2 µM (inactive) | 4.02 µM (inactive) | 2.64 µM (inactive) | 0.0333 µM (active) | 4.66 µM (inactive) | 1.87 µM (inactive) | 0.294 µM (active) | 0.782 µM (active) | 1.44 µM (inactive) | 1.44 µM (inactive) | 1.21 µM (inactive) | 3.58 µM (inactive) | 0.31 µM (active) | 0.55 µM (active) | 0.908 µM (active) | 1.65 µM (inactive) | 1.73 µM (inactive) |  | 
8 | O=C1/C(=C/c2ccccc2)CN(C(=O)Oc2ccccc2)C/C1=C\c1ccccc1 | 57.4 µM (inactive) | > 100 µM (inactive) |  | 6.44 µM (inactive) |  |  | 5.01 µM (inactive) | 21.8 µM (inactive) |  | > 100 µM (inactive) |  | 52.1 µM (inactive) | 23.2 µM (inactive) |  | 28.2 µM (inactive) |  | 15.6 µM (inactive) |  | > 100 µM (inactive)
9 | CC1=NC(=N)N=C(C)C1/N=N/c1ccc2[nH]c(C)nc2c1 (centres undefined) | > 100 µM (inactive) | > 100 µM (inactive) | > 100 µM (inactive) | > 100 µM (inactive) | > 100 µM (inactive) | > 100 µM (inactive) | > 100 µM (inactive) | > 100 µM (inactive) | > 100 µM (inactive) | > 100 µM (inactive) | > 100 µM (inactive) | > 100 µM (inactive) | > 100 µM (inactive) | > 100 µM (inactive) | > 100 µM (inactive) | > 100 µM (inactive) | > 100 µM (inactive) |  | 
10 | Oc1nnc2c(-c3ccccc3)n[nH]c2n1 | > 100 µM (inactive) | 14.2 µM (inactive) | 45.5 µM (inactive) | > 100 µM (inactive) |  |  | > 100 µM (inactive) | > 100 µM (inactive) |  |  | > 100 µM (inactive) | > 100 µM (inactive) | > 100 µM (inactive) |  | > 100 µM (inactive) |  | > 100 µM (inactive) | > 100 µM (inactive) | > 100 µM (inactive)
11 | COC(=O)C(=O)C(C(=O)C(=O)Nc1cccc(OC)c1)c1nc2ccc(Cl)cc2nc1O (centres undefined) | > 100 µM (inactive) | > 100 µM (inactive) | > 100 µM (inactive) | 12.9 µM (inactive) | 74.5 µM (inactive) | 72.4 µM (inactive) | > 100 µM (inactive) | > 100 µM (inactive) | > 100 µM (inactive) | > 100 µM (inactive) | > 100 µM (inactive) | > 100 µM (inactive) | > 100 µM (inactive) | > 100 µM (inactive) | > 100 µM (inactive) | > 100 µM (inactive) | > 100 µM (inactive) |  | 
12 | O=C(O)c1ccc(Nc2nc3nn(Cc4ccccc4)cc3c(=O)s2)cc1 |  | > 100 µM (inactive) |  | > 100 µM (inactive) | > 100 µM (inactive) |  | > 100 µM (inactive) | > 100 µM (inactive) |  | > 100 µM (inactive) |  | > 100 µM (inactive) | > 100 µM (inactive) |  | > 100 µM (inactive) |  | > 100 µM (inactive) | > 100 µM (inactive) | > 100 µM (inactive)
13 | C/C=C/[P+](c1ccccc1)(c1ccccc1)c1ccccc1 | 6.58 µM (inactive) | 0.548 µM (active) | > 68.1 µM (inactive) | 0.474 µM (active) | 0.738 µM (active) | 0.337 µM (active) | 1.34 µM (inactive) | 4.92 µM (inactive) | 0.35 µM (active) | 0.541 µM (active) | 3.57 µM (inactive) | 1.36 µM (inactive) | 0.836 µM (active) | > 100 µM (inactive) | 0.426 µM (active) | 0.962 µM (active) | 1.82 µM (inactive) |  | 
14 | Oc1cccc(C2SCc3nc4ccccc4n32)c1 (centres undefined) | 13.2 µM (inactive) | 54.7 µM (inactive) | 58.2 µM (inactive) | 48.2 µM (inactive) | 47.5 µM (inactive) |  |  |  |  | 41.1 µM (inactive) | 21.2 µM (inactive) | 60.7 µM (inactive) | 38.3 µM (inactive) |  | 96.2 µM (inactive) |  | 76 µM (inactive) | 44.3 µM (inactive) | 
15 | CCOC(C)OCC#CCCBr (centres undefined) |  | > 100 µM (inactive) | > 100 µM (inactive) | 37.1 µM (inactive) |  |  | > 100 µM (inactive) | > 100 µM (inactive) |  | > 100 µM (inactive) |  | > 100 µM (inactive) |  |  | > 100 µM (inactive) |  | > 100 µM (inactive) | > 100 µM (inactive) | > 100 µM (inactive)
16 | CCCCCCCCCCCCCCCCOCC(Cl)CP(=O)(O)OP(=O)(O)OCC1OC(n2cnc3c(N)ncnc32)C(O)C1O (centres undefined) | > 100 µM (inactive) | > 100 µM (inactive) | > 100 µM (inactive) | > 100 µM (inactive) | > 100 µM (inactive) | > 100 µM (inactive) | > 100 µM (inactive) | > 100 µM (inactive) | > 100 µM (inactive) | > 100 µM (inactive) | > 100 µM (inactive) | 47.5 µM (inactive) | > 100 µM (inactive) | > 100 µM (inactive) | > 100 µM (inactive) | > 100 µM (inactive) | > 100 µM (inactive) |  | 
17 | C=C1C(=O)O[C@@H]2/C=C(/C)[C@@H](OC(C)=O)C[C@@H](O)/C(C)=C\[C@@H](OC(=O)[C@]3(C)O[C@@H]3C)[C@@H]12 | 18.1 µM (inactive) | 31.2 µM (inactive) | 3.48 µM (inactive) | 2.38 µM (inactive) | 12.7 µM (inactive) | 42.6 µM (inactive) | 7.26 µM (inactive) | 12.5 µM (inactive) | 15.7 µM (inactive) | 2.86 µM (inactive) | 40.4 µM (inactive) | 26.3 µM (inactive) | 1.28 µM (inactive) | 46.6 µM (inactive) | 13.1 µM (inactive) | 17.6 µM (inactive) | 17.2 µM (inactive) |  | 
18 | C[C@@H]1C[C@H](O)[C@]2(O)O[C@@H]3C[C@@]4(C=O)[C@@H](CC[C@@H]5[C@@H]4CC[C@]4(C)[C@@H](C6=CC(=O)OC6)CC[C@]54O)C[C@H]3O[C@@H]2O1 [CALOTROPIN] | 0.0531 µM (active) | 0.014 µM (active) | 0.023 µM (active) | 0.0175 µM (active) | 0.0545 µM (active) | 0.0263 µM (active) | 0.0231 µM (active) | 0.065 µM (active) | 0.0692 µM (active) | 0.0167 µM (active) | 0.0815 µM (active) | 0.0187 µM (active) | 0.0162 µM (active) | 0.0206 µM (active) | 0.0348 µM (active) | 0.0234 µM (active) | 0.0436 µM (active) |  | 

Source: ChEMBL document CHEMBL1201862, “PubChem BioAssay data set” (2004)
